Results from patent publication US8101622B2, “Pyridopyrimidinone inhibitors of PI3Kα and mTOR” (Exelixis, Inc., priority 2008, dated 2012).

Experiments:
[1] = biological target: PI3Kα (Homo sapiens, UniProt P42336); test: PI3K luciferase-coupled chemiluminescence assay (PI3Kα); type: biochemical; settings: first value of cell 'P13K-α, β'; 1 μM ATP, 10 μM PIP2
Method: (§1) PI3K Luciferase-Coupled Chemiluminescence Assay Protocol
(§2) PI3Kα activity is measured as the percent of ATP consumed following the kinase reaction using luciferase-luciferin-coupled chemiluminescence. Reactions were conducted in 384-well white, medium binding microtiter plates (Greiner). Kinase reactions were initiated by combining test compounds, ATP, substrate (PIP2), and kinase in a 20 μL volume in a buffer solution. The standard PI3Kalpha assay buffer is composed 50 mM Tris, pH 7.5, 1 mM EGTA, 10 mM MgCl2, 1 mM DTT and 0.03% CHAPS. The standard assay concentrations for enzyme, ATP, and substrate are 1.5 nM, 1 μM, and 10 μM, respectively. The reaction mixture was incubated at ambient temperature for approximately 2 h. Following the kinase reaction, a 10 μL aliquot of luciferase-luciferin mix (Promega Kinase-Glo) was added and the chemiluminescence signal measured using a Victor2 plate reader (Perkin Elmer). Total ATP consumption was limited to 40-60% and IC50 values of control compounds correlate well with literature references. PI3Kα can be replaced with PI3Kβ, PI3Kδ, or PI3Kγ to determine the compound's activity for the other isoforms of PI3K.

[2] = biological target: PI3Kβ (Homo sapiens, UniProt P42338); test: PI3K luciferase-coupled chemiluminescence assay (PI3Kβ in place of PI3Kα); type: biochemical; settings: second value of cell 'P13K-α, β'
PI3Kβ, sequence (P42338 whole entry, species assumed): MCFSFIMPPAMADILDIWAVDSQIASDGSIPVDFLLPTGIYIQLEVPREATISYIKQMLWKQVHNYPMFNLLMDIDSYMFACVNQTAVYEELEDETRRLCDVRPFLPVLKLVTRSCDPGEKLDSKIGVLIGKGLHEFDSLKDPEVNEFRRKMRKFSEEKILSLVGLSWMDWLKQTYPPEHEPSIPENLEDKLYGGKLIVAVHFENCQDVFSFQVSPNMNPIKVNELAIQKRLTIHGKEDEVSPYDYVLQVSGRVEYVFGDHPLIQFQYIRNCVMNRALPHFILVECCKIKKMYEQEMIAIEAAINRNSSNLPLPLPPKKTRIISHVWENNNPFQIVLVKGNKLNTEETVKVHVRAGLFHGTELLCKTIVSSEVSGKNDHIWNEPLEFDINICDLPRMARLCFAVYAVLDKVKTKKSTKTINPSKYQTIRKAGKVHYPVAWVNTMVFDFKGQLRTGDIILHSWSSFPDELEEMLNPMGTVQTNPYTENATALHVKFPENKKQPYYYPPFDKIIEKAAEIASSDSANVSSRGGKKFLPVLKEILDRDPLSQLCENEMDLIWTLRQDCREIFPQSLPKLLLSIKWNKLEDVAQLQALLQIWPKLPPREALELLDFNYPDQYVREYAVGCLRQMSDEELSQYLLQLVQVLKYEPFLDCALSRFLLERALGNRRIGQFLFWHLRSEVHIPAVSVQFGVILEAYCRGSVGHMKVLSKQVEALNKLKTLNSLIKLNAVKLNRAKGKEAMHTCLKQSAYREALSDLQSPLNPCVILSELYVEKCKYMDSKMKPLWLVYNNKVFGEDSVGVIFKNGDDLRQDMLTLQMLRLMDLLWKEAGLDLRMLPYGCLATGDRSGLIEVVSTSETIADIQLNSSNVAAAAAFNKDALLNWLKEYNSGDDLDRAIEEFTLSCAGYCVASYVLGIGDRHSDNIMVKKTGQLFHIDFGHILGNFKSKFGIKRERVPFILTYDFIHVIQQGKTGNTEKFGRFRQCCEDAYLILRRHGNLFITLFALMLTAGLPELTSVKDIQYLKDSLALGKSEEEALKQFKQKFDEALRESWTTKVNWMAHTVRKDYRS
PI3Kβ, sequence (P27986 whole entry partner, species assumed): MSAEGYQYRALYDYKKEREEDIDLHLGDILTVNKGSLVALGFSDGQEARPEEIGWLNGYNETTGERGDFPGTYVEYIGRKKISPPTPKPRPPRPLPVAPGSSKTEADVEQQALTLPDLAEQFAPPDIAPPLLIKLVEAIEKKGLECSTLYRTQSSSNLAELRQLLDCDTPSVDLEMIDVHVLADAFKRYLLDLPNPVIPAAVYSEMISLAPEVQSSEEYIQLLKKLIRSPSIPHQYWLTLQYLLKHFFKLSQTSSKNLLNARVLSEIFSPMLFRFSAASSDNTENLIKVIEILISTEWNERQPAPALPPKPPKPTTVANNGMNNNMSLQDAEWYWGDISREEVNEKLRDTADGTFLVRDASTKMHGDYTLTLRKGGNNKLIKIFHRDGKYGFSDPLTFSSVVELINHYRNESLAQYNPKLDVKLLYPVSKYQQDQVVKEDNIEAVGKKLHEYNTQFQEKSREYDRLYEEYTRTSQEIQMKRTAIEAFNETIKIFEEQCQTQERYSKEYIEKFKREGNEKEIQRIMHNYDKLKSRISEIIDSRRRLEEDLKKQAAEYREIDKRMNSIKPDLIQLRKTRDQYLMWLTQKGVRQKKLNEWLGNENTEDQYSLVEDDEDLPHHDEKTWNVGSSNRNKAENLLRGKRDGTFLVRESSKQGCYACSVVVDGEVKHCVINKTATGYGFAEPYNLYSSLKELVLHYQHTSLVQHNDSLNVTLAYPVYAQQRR
Method: as §1, §2

[3] = biological target: mTOR/GbL/Raptor (mTORC1) (Homo sapiens, UniProt P42345); test: mTOR/GbL/Raptor (mTORC1) ELISA assay; type: biochemical; settings: mTORC1, 10 μM ATP, 4E-BP1 substrate
Method: mTOR/GbL/Raptor (mTORC1) ELISA Assay
The measurement of mTORC1 enzyme activity was performed in an ELISA assay format following the phosphorylation of 4E-BP1 protein. All experiments were performed in the 384-well format. Generally, 0.5 μL DMSO containing varying concentrations of the test compound was mixed with 15 μL enzyme solution. Kinase reactions were initiated with the addition of 15 μL of substrates-containing solution. The assay conditions were as follows; 0.2 nM mTORC1, 10 μM ATP and 50 nM NHis-tagged 4E-BP1 in 20 mM Hepes, pH 7.2, 1 mM DTT, 50 mM NaCl, 10 mM MnCl2, 0.02 mg/mL BSA, 0.01% CHAPS, 50 mM ([…]. Following an incubation of 120 minutes at ambient temperature, 20 μL of the reaction volume was transferred to a Ni-Chelate-coated 384-well plate. The binding step of the 4E-BP1 protein proceeded for 60 minutes, followed by washing 4 times each with 50 μL of Tris-buffered saline solution (TBS). Anti-phospho-4E-BP1 rabbit-IgG (20 μL, 1:5000) in 5% BSA-TBST (0.2% Tween-20 in TBS) was added and further incubated for 60 minutes. Incubation with a secondary HRP-tagged anti-IgG was similarly performed after washing off the primary antibody (4 washes of 50 μL). Following the final wash step with TBST, 20 μL of SuperSignal ELISA Femto (Pierce Biotechnology) was added and the luminescence measured using an EnVision plate reader.

[4] = test system: pS6 (S240/S244) PC-3 cell line; test: pS6 (S240/244) ELISA assay in PC-3 cells; type: cell-based, human; settings: 3 h compound, ratio pS6 to total S6
Method: PC-3 and MCF-7 cells (both from ATCC) were seeded at 8×10^3 cells per well in 96-well plates (Corning, 3904) in DMEM (Cellgro) containing 10% FBS (Cellgro), 1% NEAA (Cellgro) and 1% penicillin-streptomycin (Cellgro). Two plates were prepared for cell fixation ELISA, one for pS6 (S240/244) and one for total S6. Cells were incubated at 37° C., 5% CO2 for 48 h, and the growth medium was replaced with serum-free DMEM. Serial dilutions of the test compound in 0.3% DMSO (vehicle) were added to the cells and incubated for 3 h. To fix the cells, medium was removed and 100 μL/well of 4% formaldehyde (Sigma Aldrich, F8775) in TBS (20 mM Tris, 500 mM NaCl) was added to each well at RT for 30 min. Cells were washed 3 times with 200 μL TBS containing 0.1% Tween20 (Bio-Rad, catalog #170-6351) (TBST), and quenched with 100 μL 0.6% H2O2 (VWR International, catalog #VW3742-1) in TBST for 30 min at RT. Plates were washed 3 times with 200 μL TBST and blocked with 100 μL 5% BSA (Jackson ImmunoResearch, 001-000-173) in TBST for 1 h at RT. Anti-pS6 (S240/244) antibody (Cell Signaling Technology, 2215) and anti-total-S6 antibody (Cell Signaling Technology, 2217) were diluted 1/500 in 5% BSA in TBST, and 50 μL of either primary antibody solution was added to one plate to detect pS6 or total S6. After incubation overnight at 4° C., plates were washed 4 times with 200 μL TBST. Goat anti-rabbit secondary antibody (Jackson ImmunoResearch, catalog #111-035-003) was diluted at 1/15000 in 5% BSA in TBST. 100 μL of antibody solution was added to each well and incubated for 1 h at RT. Plates were washed 3 times with 200 μL TBST and 2 times with 200 μL TBS. Chemiluminescent substrate (Super Signal Elisa Femto Chemiluminescent Substrate; Pierce, 37075) was prepared at RT. One-hundred μL of chemiluminescent substrate per well was added and then the plate was shaken for 1 min. Luminescence was read immediately on a Wallac plate reader. IC50 values were determined based on the ratio of pS6 to total S6 signal for compound treated wells, normalized to the DMSO-treated control wells.

[5] = test system: MCF-7 cells; test: MCF-7 2 day BrdU cell proliferation assay; type: cell-based, human; settings: MCF-7, 48 hr
Method: (§3) MCF-7 and PC-3 2 Day BrdU Cell Proliferation Assay
(§4) MCF-7 (ATCC) and PC-3 (ATCC) cells were seeded onto 96-well plates (Corning, #3904) in their growth medium, DMEM (Cellgro, #10-014-CV)+10% heat-inactivated FBS (Invitrogen)+1% Pen/Strep (Cellgro, #30-002-CI)+1% NEAA (Cellgro, #25-025-CI) at a seeding density of 15000 and 8000 cells/well, respectively. Cells were incubated overnight at 37° C., 5% CO2. Cells were then treated the next day with a serial dilution of compound in its growth medium (containing a final concentration of 0.3% DMSO). Triplicate wells were used for each compound concentration. The control wells received 0.3% DMSO in growth medium. The plates were incubated at 37° C., 5% CO2 for an additional 48 hr. Cells were labeled with BrdU (Roche, #10280879001, 20 μM) for 2-4 hr and then fixed with 70% EtOH+0.1 M NaOH for 30 min at RT. Anti-BrdU-Peroxidase (Roche, #11585860001, 1/2000 in PBS+1% BSA) conjugate was added to the cells, after which the plates were washed 3 times with 1×PBS. Chemiluminescent substrate solution (Pierce, #3707A/B) was added, and the plates were read for luminescence using the Wallac Victor plate reader for 0.1 sec. IC50 values were determined based on cell proliferation with compound treatment compared to the 0.3% DMSO vehicle control.

[6] = test system: PC-3 cells; test: PC-3 2 day BrdU cell proliferation assay; type: cell-based, human
Method: as §3, §4

[7] = Mouse microsomal oxidation assay; type: in vitro ADME; settings: 15 μM compound, 0.5 mg/mL microsomal protein, 1 mM NADPH, 37° C., 30 min; +/−10% equivalent to little or no oxidation
Method: Mouse Microsomal Oxidation Assay
Microsomal oxidation of test compounds in the presence of mouse liver microsomal fractions was conducted in 96-well microtiter plates. Liver microsomal preparations were purchased from BD Gentest (Cat #452701). Test compounds were incubated in duplicate at 37° C. for 30 min in the presence of liver microsomes and NADPH. Reaction mixtures (75 μL) contained a final concentration of 15 μM test compound, 0.15% DMSO, 0.5 mg/mL microsomal protein and 1 mM NADPH in 100 mM potassium phosphate, pH 7.4 buffer. Control incubations contained the full complement of enzyme and substrate but no NADPH added. All test-sets included reference CYP450 substrates to verify assay performance. Reactions were terminated by the addition of 150 μL acetonitrile containing 0.1% formic acid. The concentration of the test compound remaining was determined by LC/MS/MS analysis on Sciex API-3000 instrument. The % oxidation is determined by the change in peak integration for the test compound (+/−NADPH) relative to the peak integration of internal standard injected with the sample: % oxidation=[((Int. peakcompound, no NADPH/Int. peakstandard)−(Int. peakcompound, NADPH/Int. peakstandard))[…]] Chromatographic separation of analytes was achieved using a Phenomenex Synergi Hydro-RP column (Torrance, Calif.) and a mobile phase consisting of 0.1% formic acid in acetonitrile and 0.1% formic acid in water. A linear gradient from 2-98% acetonitrile was used to elute compounds from the HPLC column. The typical variation (ie, precision) observed in the measurements for a given sample (e.g., multiple injections of the same sample) is ca. 10%, and thus experimental values of +/−10% can be considered to be equivalent to little or no oxidation.

PI3Kα, sequence (P42336 whole entry): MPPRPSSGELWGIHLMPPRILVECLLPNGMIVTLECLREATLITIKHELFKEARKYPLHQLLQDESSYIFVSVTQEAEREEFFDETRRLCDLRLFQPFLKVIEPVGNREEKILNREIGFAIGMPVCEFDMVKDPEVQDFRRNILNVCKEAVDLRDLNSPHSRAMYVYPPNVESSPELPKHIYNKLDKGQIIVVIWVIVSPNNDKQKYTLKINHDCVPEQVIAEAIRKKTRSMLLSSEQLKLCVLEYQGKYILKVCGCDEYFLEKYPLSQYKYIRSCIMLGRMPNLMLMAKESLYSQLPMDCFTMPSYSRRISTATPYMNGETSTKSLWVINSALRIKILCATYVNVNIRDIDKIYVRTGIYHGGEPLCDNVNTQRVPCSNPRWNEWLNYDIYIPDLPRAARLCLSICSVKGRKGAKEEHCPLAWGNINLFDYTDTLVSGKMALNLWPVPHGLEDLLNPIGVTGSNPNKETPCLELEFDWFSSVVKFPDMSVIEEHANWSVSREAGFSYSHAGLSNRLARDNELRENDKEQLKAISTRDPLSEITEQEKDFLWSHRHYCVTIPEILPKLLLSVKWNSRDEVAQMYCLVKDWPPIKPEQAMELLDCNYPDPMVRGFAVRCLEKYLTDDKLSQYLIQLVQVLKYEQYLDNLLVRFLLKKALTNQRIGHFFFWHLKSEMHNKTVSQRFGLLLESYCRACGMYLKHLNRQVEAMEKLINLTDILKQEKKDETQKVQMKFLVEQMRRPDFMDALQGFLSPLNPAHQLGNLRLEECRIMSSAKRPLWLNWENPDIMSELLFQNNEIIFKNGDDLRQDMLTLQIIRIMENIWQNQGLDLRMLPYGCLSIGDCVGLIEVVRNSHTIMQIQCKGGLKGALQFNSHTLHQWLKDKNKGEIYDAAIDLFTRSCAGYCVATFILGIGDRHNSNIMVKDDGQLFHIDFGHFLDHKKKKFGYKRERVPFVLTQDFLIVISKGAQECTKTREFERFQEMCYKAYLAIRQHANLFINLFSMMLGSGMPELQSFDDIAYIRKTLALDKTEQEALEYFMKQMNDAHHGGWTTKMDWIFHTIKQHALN
PI3Kα, sequence (P27986 whole entry partner): as the sequence (P27986 whole entry partner, species assumed) above

IC50 [1] [nM] | IC50 [2] [nM] | IC50 [3] [nM] | IC50 [4] [nM] | IC50 [5] [nM] | IC50 ([6]; PC-3, 48 hr) [nM] | Mouse Liver Microsome Oxidation (%) [7] [%] | IC50 ([4]; Homo sapiens, PC-3, 3 h) [nM] | IC50 ([5]; Homo sapiens, MCF7, 48 h) [nM] | IC50 ([6]; Homo sapiens, PC-3, 48 h) [nM] | Compound
< 9.1 | 34 | 2.5 | 18.5 | 217 | 497 | −8.2 | – | – | – | Cc1nc(N)nc2c1cc(-c1ccc(N)nc1)c(=O)n2C1CCOC1 (centres unmarked) [listing 1 of 2 here]
15.5 | 16.7 | 5.5 | – | – | – | – | – | – | – | Cc1nc(N)nc2c1cc(-c1ccc(N)nc1)c(=O)n2[C@H]1CCOC1
2.8 | 6.8 | 6.8 | – | – | – | 45.6 | 40.8 | 218 | 469 | COc1ccc(-c2cc3c(C)nc(N)nc3n(C3CCCOC3)c2=O)cn1 (centres unmarked) [reference compound]
– | – | – | – | – | – | 1.7 | 36.6 | 377 | 401 | Cc1nc(N)nc2c1cc(-c1ccc(N)nc1)c(=O)n2C1CCOC1 (centres unmarked) [listing 2 of 2 here]
– | – | – | – | – | – | 6.6 | 25.6 | 151 | 297 | Cc1nc(N)nc2c1cc(-c1ccc(N)nc1)c(=O)n2C1CCCOC1 (centres unmarked) [listing 1 of 2 here]
9.2 | 471 | 5.8 | – | – | – | – | – | – | – | Cc1nc(N)nc2c1cc(-c1ccc(N(C)C)nc1)c(=O)n2[C@H]1CCCOC1 [reference compound]
7.3 | 60.8 | 3 | – | – | – | – | – | – | – | Cc1nc(N)nc2c1cc(-c1ccc(N)nc1)c(=O)n2[C@H]1CCCOC1
13.5 | 205 | 6.1 | 96.2 | 151 | 741 | 31.2 | – | – | – | Cc1nc(N)nc2c1cc(-c1ccc(N(C)C)nc1)c(=O)n2C1CCCOC1 (centres unmarked) [reference compound] [listing 1 of 2 here]
– | – | – | – | – | – | 41.3 | 71.7 | 247 | 1330 | Cc1nc(N)nc2c1cc(-c1ccc(N(C)C)nc1)c(=O)n2C1CCCOC1 (centres unmarked) [reference compound] [listing 2 of 2 here]
5.5 | 52.1 | 2.6 | 15.8 | 97.8 | 150 | 15.2 | – | – | – | Cc1nc(N)nc2c1cc(-c1ccc(N)nc1)c(=O)n2C1CCCOC1 (centres unmarked) [listing 2 of 2 here]
9 | 19.8 | 3.2 | – | – | – | −7.8 | 25 | 152 | 280 | Cc1nc(N)nc2c1cc(-c1ccc(N)nc1)c(=O)n2C1CCOCC1
